Test results reported in US10662146B2, “Prodrugs of fencamfamine” (Praxis Bioresearch, LLC, priority 2015, dated 2020).
Values joined by “and” are separate entries in the source; they are usually repeats but may differ in a detail not shown here. Identical values can stand only once. Like-named read-outs stand apart in the source and are kept apart here.

Assay: Single dose oral PK study in male Sprague Dawley rats (plasma by LC-MS/MS)
Assay type: in vivo
Procedure: We describe here PK results of prodrugs of PRX-002 (−) or (+) isomers. All doses of prodrugs were administered such that they were equivalent to 5 mg/kg of PRX-002 (−) or (+) for oral studies and 2 mg/kg PRX-002 (−) or (+) for intravenous studies in male Sprague-Dawley (MSD) rats. Higher doses of up to 10 or 15 mg/kg [again equivalent to PRX-002 (−)] were used in some studies (as specified)]. Formulation preparation, dose administration and time of sample collection was as follows.
Test item was weighed [5 mg equivalent dose of PRX-002 for prodrugs] and transferred to a graduated tube. Then 10 μL of Tween 80 was added and vortexed mixed until the test item was completely mixed. Small volume of 0.5% (w/v) carboxymethylcellulose in water solution was then added dropwise with continuous vortex mixing until a uniform suspension was obtained. The final volume was then made up to 10 mL with 0.5% (w/v) carboxymethylcellulose in water with final strength of 0.5 mg/mL. […] This formulation was freshly prepared before the administration to animals.
(§1) Adult male Sprague Dawley Rats aged 8-10 weeks were used for the study. Fasted animals were administered test item by oral route with a dose of 5 mg/kg body weight at dose volume of 10 mL/kg body weight. Under mild isoflurane anesthesia, blood specimens were collected by retro-orbital puncture method using capillary tubes into pre-labeled tubes containing anticoagulant (K2EDTA-2 mg/mL blood) during the next 24 hours of post dose as mentioned in below table. For blood sampling at multiple time points, right and left eyes were used alternatively for blood collection. Collected blood specimens were centrifuged at 4000 rpm, 4° C. for 10 minutes and plasma were separated and stored at −80° C. until analysis.
Blood was collected as outlined in Table 39.1 (oral).
Test item PRX-P4-003 was weighed and transferred to a graduated tube. Then 12.42 μL of Tween 80 was added and vortexed mixed until the test item was completely mixed. Small volume of 0.5% (w/v) Carboxymethylcellulose in water solution was then added dropwise with continuous vortex mixing until a uniform suspension was obtained. The final volume was then made up to 12.42 mL with 0.5% (w/v) Carboxymethylcellulose in water with final strength of 1.0 mgA/mL. […] This formulation was freshly prepared before the administration to animals.
as §1, with “with a PRX-P4-003” for “test item”, “10” for “5”
Test item PRX-P5-006 was weighed and transferred to a graduated tube. Then 10 μL of Tween 80 was added and vortexed mixed until the test item was completely mixed. Small volume of 0.5% (w/v) Carboxymethylcellulose in water solution was then added dropwise with continuous vortex mixing until a uniform suspension was obtained. The final volume was then made up to 10 mL with 0.5% (w/v) Carboxymethylcellulose in water with final strength of 3.97 mg/mL. […] This formulation was freshly prepared before the administration to animals.
Adult male Sprague Dawley Rats aged 8-10 weeks were used for the study. Fasted animals were administered with a PRX-P5-006 by oral route with a dose of 15 mg/kg body weight at dose volume of 10 mL/kg body weight. […]

CCCCCCCCCCCCCCCCCC(=O)OC(C)OC(=O)N(CC)C1C2CCC(C2)C1c1ccccc1 (single isomer, unassigned) [PRX-P5-011, N-(1-Octadecanoyloxyethoxycarbonyl)-(+)-N-ethyl-3-phenylbicyclo[2.2.1]heptan-2-amine]
0 h: Oral PK Parameters Tmax, Prodrug (oral 5 mg/kg [equivalent to PRX-002 (−)], analyte: prodrug in plasma, mean)
not detected: Active compound PRX-002 (+) in plasma (PRX-P5-011 oral administration)
0 ng/mL: concentration at 0 h (male, Sprague-Dawley, rat, in vivo, PRX-P5-011 oral (5 mg/kg equivalent), 0.00 h, individual animals, read-out: Plasma concentration of PRX-P5-011) | concentration at 0.08 h (male, Sprague-Dawley, rat, in vivo, PRX-P5-011 oral (5 mg/kg equivalent), 0.08 h, individual animals, read-out: Plasma concentration of PRX-P5-011) | concentration at 0.25 h (male, Sprague-Dawley, rat, in vivo, PRX-P5-011 oral (5 mg/kg equivalent), 0.25 h, individual animals, read-out: Plasma concentration of PRX-P5-011) | concentration at 0.5 h (male, Sprague-Dawley, rat, in vivo, PRX-P5-011 oral (5 mg/kg equivalent), 0.50 h, individual animals, read-out: Plasma concentration of PRX-P5-011) | concentration at 1 h (male, Sprague-Dawley, rat, in vivo, PRX-P5-011 oral (5 mg/kg equivalent), 1.00 h, individual animals, read-out: Plasma concentration of PRX-P5-011) | concentration at 2 h (male, Sprague-Dawley, rat, in vivo, PRX-P5-011 oral (5 mg/kg equivalent), 2.00 h, individual animals, read-out: Plasma concentration of PRX-P5-011) | concentration at 4 h (male, Sprague-Dawley, rat, in vivo, PRX-P5-011 oral (5 mg/kg equivalent), 4.00 h, individual animals, read-out: Plasma concentration of PRX-P5-011) | concentration at 6 h (male, Sprague-Dawley, rat, in vivo, PRX-P5-011 oral (5 mg/kg equivalent), 6.00 h, individual animals, read-out: Plasma concentration of PRX-P5-011) | concentration at 24 h (male, Sprague-Dawley, rat, in vivo, PRX-P5-011 oral (5 mg/kg equivalent), 24.00 h, individual animals, read-out: Plasma concentration of PRX-P5-011)
0.00 ng/mL: Plasma concentration of PRX-P5-011 (PRX-P5-011 oral (5 mg/kg equivalent), 0.00 h, individual animals) | Plasma concentration of PRX-P5-011 (PRX-P5-011 oral (5 mg/kg equivalent), 0.08 h, individual animals) | Plasma concentration of PRX-P5-011 (PRX-P5-011 oral (5 mg/kg equivalent), 0.25 h, individual animals) | Plasma concentration of PRX-P5-011 (PRX-P5-011 oral (5 mg/kg equivalent), 0.50 h, individual animals) | Plasma concentration of PRX-P5-011 (PRX-P5-011 oral (5 mg/kg equivalent), 1.00 h, individual animals) | Plasma concentration of PRX-P5-011 (PRX-P5-011 oral (5 mg/kg equivalent), 2.00 h, individual animals) | Plasma concentration of PRX-P5-011 (PRX-P5-011 oral (5 mg/kg equivalent), 4.00 h, individual animals) | Plasma concentration of PRX-P5-011 (PRX-P5-011 oral (5 mg/kg equivalent), 6.00 h, individual animals) | Plasma concentration of PRX-P5-011 (PRX-P5-011 oral (5 mg/kg equivalent), 24.00 h, individual animals)
0.000 ng/mL: Plasma concentration of PRX-P5-011 (PRX-P5-011 oral (5 mg/kg equivalent), 0.00 h, mean) | Plasma concentration of PRX-P5-011 (PRX-P5-011 oral (5 mg/kg equivalent), 0.08 h, mean) | Plasma concentration of PRX-P5-011 (PRX-P5-011 oral (5 mg/kg equivalent), 0.25 h, mean) | Plasma concentration of PRX-P5-011 (PRX-P5-011 oral (5 mg/kg equivalent), 0.50 h, mean) | Plasma concentration of PRX-P5-011 (PRX-P5-011 oral (5 mg/kg equivalent), 1.00 h, mean) | Plasma concentration of PRX-P5-011 (PRX-P5-011 oral (5 mg/kg equivalent), 2.00 h, mean) | Plasma concentration of PRX-P5-011 (PRX-P5-011 oral (5 mg/kg equivalent), 4.00 h, mean) | Plasma concentration of PRX-P5-011 (PRX-P5-011 oral (5 mg/kg equivalent), 6.00 h, mean) | Plasma concentration of PRX-P5-011 (PRX-P5-011 oral (5 mg/kg equivalent), 24.00 h, mean)

CCCCCCCCCCCCCCCCCC(=O)OCOC(=O)N(CC)C1C2CCC(C2)C1c1ccccc1 (single isomer, unassigned) [PRX-P4-003, N-(Octadecanoyloxymethoxycarbonyl)-(−)-N-ethyl-3-phenylbicyclo[2.2.1]heptan-2-amine]
almost none: Prodrug form present in the plasma (PRX-P4-003 administered orally (FIG. 4))
0.0%: AUC% extrap of PRX-P4-003 (PRX-P4-003 oral 10 mg/kg, mean)
0 h: Tmax (male, Sprague Dawley, rat, in vivo, PRX-P4-003 oral 10 mg/kg, mean, read-out: Tmax of PRX-P4-003) | Tmax (male, Sprague Dawley, rat, in vivo, oral 5 mg/kg [equivalent to PRX-002 (−)], analyte: prodrug in plasma, mean, read-out: Oral PK Parameters Tmax, Prodrug) | Tmax (male, Sprague-Dawley, rat, in vivo, PRX-P4-003 oral 5 mg/kg, mean, read-out: Tmax of PRX-P4-003)
desired plasma concentration: Active PRX-002 (−) Isomer formed in plasma (PRX-P4-003 oral administration (FIG. 2, FIG. 4))
0.00: Plasma concentration of PRX-P4-003 (PRX-P4-003 oral 5 mg/kg b.w., 0.00 h, mean) | Plasma concentration of PRX-P4-003 (PRX-P4-003 oral 5 mg/kg b.w., 0.08 h, mean) | Plasma concentration of PRX-P4-003 (PRX-P4-003 oral 5 mg/kg b.w., 0.25 h, mean) | Plasma concentration of PRX-P4-003 (PRX-P4-003 oral 5 mg/kg b.w., 0.50 h, mean) | Plasma concentration of PRX-P4-003 (PRX-P4-003 oral 5 mg/kg b.w., 1.00 h, mean) | Plasma concentration of PRX-P4-003 (PRX-P4-003 oral 5 mg/kg b.w., 2.00 h, mean) | Plasma concentration of PRX-P4-003 (PRX-P4-003 oral 5 mg/kg b.w., 4.00 h, mean) | Plasma concentration of PRX-P4-003 (PRX-P4-003 oral 5 mg/kg b.w., 6.00 h, mean) | Plasma concentration of PRX-P4-003 (PRX-P4-003 oral 5 mg/kg b.w., 24.00 h, mean) | Plasma concentration of PRX-P4-003 (PRX-P4-003 oral 10 mg/kg b.w., 0.00 h, mean) | Plasma concentration of PRX-P4-003 (PRX-P4-003 oral 10 mg/kg b.w., 0.08 h, mean) | Plasma concentration of PRX-P4-003 (PRX-P4-003 oral 10 mg/kg b.w., 0.25 h, mean) | Plasma concentration of PRX-P4-003 (PRX-P4-003 oral 10 mg/kg b.w., 0.50 h, mean) | Plasma concentration of PRX-P4-003 (PRX-P4-003 oral 10 mg/kg b.w., 1.00 h, mean) | Plasma concentration of PRX-P4-003 (PRX-P4-003 oral 10 mg/kg b.w., 2.00 h, mean) | Plasma concentration of PRX-P4-003 (PRX-P4-003 oral 10 mg/kg b.w., 4.00 h, mean) | Plasma concentration of PRX-P4-003 (PRX-P4-003 oral 10 mg/kg b.w., 6.00 h, mean) | Plasma concentration of PRX-P4-003 (PRX-P4-003 oral 10 mg/kg b.w., 24.00 h, mean)
0.0 ± 0.0% and 0.0%: AUC% extrap of PRX-P4-003 (PRX-P4-003 oral 5 mg/kg, mean, 5 mg/kg)
